The test system of the assay is MM.1S multiple myeloma cells. The assay is described as follows: Disseminated MM.1S multiple myeloma model. Format: in vivo, NSG mice. To be noted: Example 11. On the procedure:
Female NOD severe combined immune deficient (SCID) gamma (NSG) mice 8-9 weeks of age were inoculated with 5×10^6 multiple myeloma MM.1S cells into the tail vein. Randomization by body weight and start of treatment was initiated 7 days post tumor inoculation. The treatment groups are outlined in Table 18. All investigational test articles were formulated in 10 mM citrate pH 6.0, 10% sucrose. Groups 1-10 (n=6/group) were monitored for survival endpoint characterized by >20% body weight loss and clinical signs including lethargy, hind limb paralysis or moribundity. Groups 11-20 (n=3/group) were used for bone marrow harvest and analysis of tumor burden on day 28 post tumor cell inoculation. For all groups, body weights were monitored 1-2×/week.
Tumor burden was assessed and quantified by detection of hCD138 positive (hCD138+) cells in the bone marrow. Bone marrow cells from mouse femur and tibia were pooled and assessed for human CD138+ expression using the Alexa Fluor 647 mouse anti-human CD138 clone MI15 (BD Biosciences #562097) according to the manufacturer's protocol. […] Data was analyzed using Flowjo (Tree Star, Inc., Ashland, Oreg.).
Mean survival, survival delay, and tumor burden, during and at the study endpoint, were analyzed using a one-way analysis of variance (ANOVA) with Dunnett's multiple comparison test. […]

`CC(C)C[C@H](NC(=O)[C@H](Cc1ccccc1)NC(=O)c1cnccn1)B(O)O` [Velcade]: the mean survival (0.8 mg/kg q7dx2 IP) came to 40.6 days.

Regarding “Daratumumab: MM standard of care agent, clinical grade”, the “effect on survival compared to vehicle control” value (3 or 10 mg/kg single IP) is “no significant effect on survival”.

Source of the values: US20220362394A1, “ANTI-BCMA ANTIBODY CONJUGATES” (SUTRO BIOPHARMA, INC., priority 2019, published 2022).
